Test results from patent publication US20160115200A1, “New Use for JNK Inhibitor Molecules for Treatment of Various Diseases” (XIGEN INFLAMMATION LTD., priority 2013, published 2016).
Square brackets hold non-standard residues; d marks the D form. Ends that are not written are not given here.

Tests used:
[1] = test system: primary rat lymph-nodes purified T cells; assay: CD3/CD28-induced IL-2 release in primary rat lymph-nodes purified T cells; assay type: cell-based; settings: inhibitor 1 h before CD3/CD28 (2 μg/mL), supernatant after 24 h
Method: Control rat were sacrificed and lymph-nodes were harvested. T cells further were purified (using magnetic negative selection) and plated into 96-well plates at 200.000 cells/well. Cells were treated with anti-rat CD3 and anti-rat CD28 antibodies (2 μg/mL). JNK inhibitor with SEQ ID NO: 172 was added to the cultures 1 h before CD3/CD28 treatment and IL-2 release was assessed in supernatant 24 h after treatment.
Control animal were sacrificed, lymph nodes (LN) were harvested and kept in complete RPMI medium. LN were smashed with complete RPMI on 70 μm filter using a 5 ml piston. A few drops of media were added to keep strainer wet. Cells were centrifuged for 7 min at 450 g and 4° C. Pellet was resuspended in 5 ml fresh medium. Cells were passed again through cell strainer. An aliquot of cells was counted, while cells were centrifuged again 10 min at 1400 rpm and 4° C. Cells were resupended in MACS buffer (80 μl of MACS buffer per 10^7 cells). 10 μl of anti-rat MHC microbeads were added per 10 million cells, cells were incubated for 15 min at 4°-8° C. Cells were washed with 15 ml MACS buffer and centrifuge for 7 min at 700 g and 4° C. […] Resuspended cells were counted and plated at density of 200000 cells/well in 100 μl of complete medium. […] Cytokines were then measured using standard Elisa kits. Results are expressed as pg/ml of supernatant of the measured cytokine. […]

[2] = test system: endotoxins-induced uveitis albino rat model; assay: Endotoxins-induced uveitis (EIU), single intravenous injection, clinical scoring 24 h after LPS; assay type: in vivo; design: key to EIU clinical score, median: clinical score per eye, 0 to 4 scale
Method: The aim of this study was to determine the effects of single intravenous injections of SEQ ID NO: 172 (0.015, 0.18, and 1.80 mg/kg) on the inflammatory response in an endotoxins-induced uveitis albino rat model and to compare these affects to those obtained with prior art JNK inhibitor of SEQ ID NO: 197 (2 mg/kg). As a further control served phosphate sodic dexamethasone.
Sixty (60) male Lewis rats were randomly divided into six (6) groups of ten (10) animals each. EIU was induced by footpad injection of lipopolysaccharide (LPS, 1 mg/kg). NaCl (0.9%), SEQ ID NO: 197 at 2 mg/kg and SEQ ID NO: 172 at three concentrations (1.80 mg/kg, 0.18 mg/kg and 0.015 mg/kg) were administered by intravenous injection. Phosphate sodic dexamethasone (20 μg/eye) was administered by sub-conjunctival injection in both eyes. 24 hours after LPS injection, inflammatory response was evaluated by clinical scoring.
The intensity of clinical ocular inflammation was scored on a scale from 0 to 4 for each eye: […]

[3] = test system: mouse model of scopolamine-induced dry eye; assay: Scopolamine-induced dry eye in mice (TBUT, PRTT, histopathology); assay type: in vivo
Source text: The objective of this study was to assess the effects of two different compounds, the all-D-retro-inverso JNK-inhibitor (poly-)peptide of SEQ ID NO: 197 and the JNK inhibitor (poly-)peptide of SEQ ID NO: 172, at three dose levels in a mouse model of scopolamine-induced dry eye.
The study consisted of a total of 9 groups of female C57BL/6 mice, comprising 8 groups of 12 mice each and an additional group of 4 mice. Bilateral short-term dry eye was induced by a combination of scopolamine hydrobromide (Sigma-Aldrich Corp., St. Louis, Mo.) injection (subcutaneous (SC), four times daily, 0.5 mg/dose, Days 0-21) and by exposing mice to the drying environment of constant air draft. […] Mice of Group 9 were maintained as un-induced, (no dry eye) untreated controls.
During the in-life (treatment) period, clinical observations were recorded once daily; slit-lamp examination (SLE) with corneal fluorescein staining, tear break-up time test (TBUT), and phenol red thread test (PRTT) were performed three times per week. Necropsies were performed on Day 22; eyes, eye lids, conjunctivae, and lacrimal glands were collected from both eyes of each animal. Tissues from the right eyes (oculus dexter, OD) were fixed and then evaluated microscopically. Tissues from the left eyes (oculus sinister; OS) were flash-frozen in liquid nitrogen and stored frozen at −80° C. for possible subsequent analyses.
The TBUT test was conducted three times weekly by measuring the time elapsed in seconds between a complete blink after application of fluorescein to the cornea and the appearance of the first random dry spot in the tear film. […] At least ninety seconds later, corneal epithelial damage was graded using a slit-lamp with a cobalt blue filter after another drop of 0.1% fluorescein was reapplied to the cornea; the cornea then was scored per the Draize ocular scale.
Tear production was measured three times a week in both eyes using PRTT test strips (Zone-Quick; Menicon, Nagoya, Japan). Prior to the first treatment of the day, a thread was applied to the lateral canthus of the conjunctival fornix of each eye for 30 seconds under slit-lamp biomicroscopy. Tear migration up the tread (i.e., the length of the wetted cotton thread) was measured using a millimeter scale.
At necropsy on Day 22, both eyes from each animal, including the globes, lacrimal glands, eyelids, and conjunctivae, were excised. The right eye and associated tissues were fixed by overnight submersion in modified Davidson's solution followed by transfer to 10% neutral buffered formalin (NBF). The fixed tissues of the right eye were dehydrated, embedded in paraffin, sectioned at 3 to 5-μm thicknesses, and slide-mounted tissues were stained with hematoxylin and eosin (H & E). Stained slides were evaluated via light microscopy. Detailed and complete histopathologic assessment was conducted on all parts of the eye, with at least two section levels being examined histopathologically for each right eye. Special attention was paid to the cornea, epithelia (including goblet cells) of the conjunctiva and cornea, as well as the lacrimal gland. These tissues were scored for injury based upon a 0-4 scale, with 0 being normal, 1 being minimal, 2 being mild, 3 being moderate, and 4 being severe. For each cornea, scores were based on corneal epithelium thickness, and corneal inflammation. Conjunctivae were scored for erosion and inflammation as well as presence or absence of goblet cells.

[4] = 2 mg/kg i.v., 24 hours after LPS

Question: What does the source list for “dqsrpvqpflnlttprkprpprrrqrrkkrg ([dD][dQ][dS][dR][dP][dV][dQ][dP][dF][dL][dN][dL][dT][dT][dP][dR][dK][dP][dR][dP][dP][dR][dR][dR][dQ][dR][dR][dK][dK][dR]G) [SEQ ID NO: 197, reference compound]”?
Answer: CD3/CD28-induced IL-2 release [1]: Dose-dependent inhibition; EIU clinical score, median [2, 4]: 2; decrease of EIU scores compared with vehicle group [2, 4]: 40%; EIU clinical score, mean±SEM ([2]; 2 mg/kg i.v., 24 hours after LPS, scale 0 to 4 (+1)): 2.2±0.3; endotoxin-induced inflammation in the anterior chamber ([2]; single intravenous injection 2 mg/kg): partially prevented the endotoxin-induced inflammation; Mean PRTT AUC ([3]; Day 7-21, high dose 0.6% (SEQ ID NO: 197 Group 4; SEQ ID NO: 172 Group 7)): 43.17; Mean PRTT AUC ([3]; Day 7-21, low dose (SEQ ID NO: 197 0.06% Group 2; SEQ ID NO: 172 0.05% Group 5)): 39.96; Mean PRTT AUC ([3]; Day 7-21, mid dose (SEQ ID NO: 197 0.25% Group 3; SEQ ID NO: 172 0.2% Group 6)): 42.79; Mean Calculated TBUT AUC ([3]; Day 7 to Day 21, high dose 0.6% (SEQ ID NO: 197 Group 4; SEQ ID NO: 172 Group 7)): 89.98; Mean Calculated TBUT AUC ([3]; Day 7 to Day 21, low dose (SEQ ID NO: 197 0.06% Group 2; SEQ ID NO: 172 0.05% Group 5)): 88.54; Mean Calculated TBUT AUC ([3]; Day 7 to Day 21, mid dose (SEQ ID NO: 197 0.25% Group 3; SEQ ID NO: 172 0.2% Group 6)): 91.19; PRTT change with dose ([3]; SEQ ID NO: 197 0.06%, 0.25% and 0.6%, Groups 2, 3 and 4): generally dose-dependent increases in PRTT; TBUT change with dose ([3]; SEQ ID NO: 197 low, mid and high dose (Groups 2-4)): slight generally dose-dependent increases in TBUT; corneal changes (histology) compared with other treatment groups ([3]; low dose SEQ ID NO: 197 (Group 2)): slightly more severe; histological cornea scores compared with cyclosporine group ([3]; mid and high-dose SEQ ID NO: 172 (Groups 6, 7), high-dose SEQ ID NO: 197 (Group 4)): not significantly different than the cyclosporine group scores
